Test results as given in patent US3963711A, “Cyanomethyl sulfinyl- and sulfonyl-acetamido cephalosporins” (SmithKline Corporation, priority 1975, dated 1976).
Values after ≈ are worked out from the molar mass of the structure shown.

Tests used:
Type in all cases: cell-based
[1] = tested on: S. aureus HH 127; assay: MIC by standard agar inclusion method, S. aureus HH 127; conditions: Staphylococcus aureus, HH127
[2] = tested on: S. aureus SK 23390; assay: MIC by standard agar inclusion method, S. aureus SK 23390; conditions: Staphylococcus aureus, SK23390
[3] = tested on: S. aureus Villaluz; assay: MIC by standard agar inclusion method, S. aureus Villaluz; conditions: Staphylococcus aureus
[4] = tested on: Strep. faecalis HH 34358; assay: MIC by standard agar inclusion method, Strep. faecalis HH 34358; conditions: Enterococcus faecalis, HH34358
[5] = tested on: E. Coli SK 12140; assay: MIC by standard agar inclusion method, E. Coli SK 12140; conditions: Escherichia coli
[6] = tested on: E. Coli HH 33779; assay: MIC by standard agar inclusion method, E. Coli HH 33779; conditions: Escherichia coli
[7] = tested on: Kleb. pneumo. SK 4200; assay: MIC by standard agar inclusion method, Kleb. pneumo. SK 4200
[8] = tested on: Kleb. pneumo. SK 1200; assay: MIC by standard agar inclusion method, Kleb. pneumo. SK 1200
[9] = tested on: Salmonella ATCC 12176; assay: MIC by standard agar inclusion method, Salmonella ATCC 12176; conditions: ATCC12176
[10] = tested on: Shigella paradysentiae; assay: MIC by standard agar inclusion method, Shigella paradysentiae
[11] = tested on: Pseudo. aeruginosa HH63; assay: MIC by standard agar inclusion method, Pseudo. aeruginosa HH63; conditions: Pseudomonas aeruginosa
[12] = tested on: Serratia marc. ATCC 13880; assay: MIC by standard agar inclusion method, Serratia marc. ATCC 13880; conditions: ATCC13880
[13] = tested on: Entero. aerogenes ATCC 13048; assay: MIC by standard agar inclusion method, Entero. aerogenes ATCC 13048; conditions: Klebsiella aerogenes, ATCC13048

For `Cn1nnnc1SCC1=C(C(=O)O)N2C(=O)C(NC(=O)CSCC#N)[C@H]2SC1` (stereo partly drawn) [Compound 94436, 7-Cyanomethylmercaptoacetamido-3-(1-methyltetrazol-5-ylthiomethyl)-3-cephem-4-carboxylic acid], the MIC [1] was 0.4 µg/mL (≈ 0.906 µM), the MIC [2] was 0.4 µg/mL (≈ 0.906 µM) and the MIC [3] was 12.5 µg/mL (≈ 28.3 µM). It also gave an MIC [4] of 50 µg/mL (≈ 113 µM), an MIC [5] of 0.8 µg/mL (≈ 1.81 µM) and an MIC [6] of 1.6 µg/mL (≈ 3.62 µM). It also gave an MIC [7] of 1.6 µg/mL (≈ 3.62 µM), an MIC [8] of 1.6 µg/mL (≈ 3.62 µM) and an MIC [9] of 0.4 µg/mL (≈ 0.906 µM). The MIC [10] was 0.8 µg/mL (≈ 1.81 µM), the MIC [11] was over 200 µg/mL and the MIC [12] was over 200 µg/mL. The MIC [13] was 12.5 µg/mL (≈ 28.3 µM).

`Cc1nnc(SCC2=C(C(=O)O)N3C(=O)C(NC(=O)CS(=O)(=O)CC#N)[C@H]3SC2)s1` (stereo partly drawn) [Compound 09346, 7-Cyanomethylsulfonylacetamido-3-(5-methyl-1,3,4-thiadiazol-2-ylthiomethyl)-3-cephem-4-carboxylic acid] was tested, and the MIC [1] was 1.6 µg/mL (≈ 3.27 µM), the MIC [2] was 1.6 µg/mL (≈ 3.27 µM) and the MIC [3] was 100 µg/mL (≈ 204 µM). For the same compound, the MIC [4] was 25 µg/mL (≈ 51.1 µM), the MIC [5] was 3.1 µg/mL (≈ 6.33 µM) and the MIC [6] was 6.3 µg/mL (≈ 12.9 µM). It also gave an MIC [7] of 6.3 µg/mL (≈ 12.9 µM), an MIC [8] of 3.1 µg/mL (≈ 6.33 µM) and an MIC [9] of 6.3 µg/mL (≈ 12.9 µM). For the same compound, the MIC [10] was 3.1 µg/mL (≈ 6.33 µM), the MIC [11] was over 200 µg/mL and the MIC [12] was over 200 µg/mL. For the same compound, the MIC [13] was 12.5 µg/mL (≈ 25.5 µM).

`Cn1nnnc1SCC1=C(C(=O)O)N2C(=O)C(NC(=O)CS(=O)(=O)CC#N)[C@H]2SC1` (stereo partly drawn) [Compound 72346, 7-Cyanomethylsulfonylacetamido-3-(1-methyltetrazol-5-ylthiomethyl)-3-cephem-4-carboxylic acid] was tested, and the MIC [1] was 1.6 µg/mL (≈ 3.38 µM), the MIC [2] was 1.6 µg/mL (≈ 3.38 µM) and the MIC [3] was 25 µg/mL (≈ 52.8 µM). For the same compound, the MIC [4] was 50 µg/mL (≈ 106 µM), the MIC [5] was 1.6 µg/mL (≈ 3.38 µM) and the MIC [6] was 3.1 µg/mL (≈ 6.55 µM). The MIC [7] was 1.6 µg/mL (≈ 3.38 µM), the MIC [8] was 1.6 µg/mL (≈ 3.38 µM) and the MIC [9] was 1.6 µg/mL (≈ 3.38 µM). It also gave an MIC [10] of 1.6 µg/mL (≈ 3.38 µM), an MIC [11] of over 200 µg/mL and an MIC [12] of over 200 µg/mL. The MIC [13] was 6.3 µg/mL (≈ 13.3 µM).

`Cc1nnc(SCC2=C(C(=O)O)N3C(=O)C(NC(=O)CSCC#N)[C@H]3SC2)s1` (stereo partly drawn) [Compound 21436, 7-Cyanomethylmercaptoacetamido-3-(5-methyl-1,3,4-thiadiazol-2-ylthiomethyl)-3-cephem-4-carboxylic acid] gave an MIC [1] of 0.2 µg/mL (≈ 0.437 µM), an MIC [2] of 0.1 µg/mL (≈ 0.219 µM) and an MIC [3] of 25 µg/mL (≈ 54.6 µM). It also gave an MIC [4] of 6.3 µg/mL (≈ 13.8 µM), an MIC [5] of 1.6 µg/mL (≈ 3.5 µM) and an MIC [6] of 6.3 µg/mL (≈ 13.8 µM). It also gave an MIC [7] of 1.6 µg/mL (≈ 3.5 µM), an MIC [8] of 0.8 µg/mL (≈ 1.75 µM) and an MIC [9] of 1.6 µg/mL (≈ 3.5 µM). The MIC [10] was 1.6 µg/mL (≈ 3.5 µM), the MIC [11] was over 200 µg/mL and the MIC [12] was over 200 µg/mL. For the same compound, the MIC [13] was over 200 µg/mL.

For `CC(=O)OCC1=C(C(=O)O)N2C(=O)C(NC(=O)CSCC#N)C2SC1` (stereo not drawn) [Compound 79336, 7-Cyanomethylmercaptoacetamidocephalosporanic acid], the MIC [1] was 0.2 µg/mL (≈ 0.519 µM), the MIC [2] was 0.8 µg/mL (≈ 2.08 µM) and the MIC [3] was 25 µg/mL (≈ 64.9 µM). For the same compound, the MIC [4] was 12.5 µg/mL (≈ 32.4 µM), the MIC [5] was 6.3 µg/mL (≈ 16.3 µM) and the MIC [6] was 12.5 µg/mL (≈ 32.4 µM). For the same compound, the MIC [7] was 1.6 µg/mL (≈ 4.15 µM), the MIC [8] was 6.3 µg/mL (≈ 16.3 µM) and the MIC [9] was 1.6 µg/mL (≈ 4.15 µM). For the same compound, the MIC [10] was 6.3 µg/mL (≈ 16.3 µM), the MIC [11] was over 200 µg/mL and the MIC [12] was over 200 µg/mL. For the same compound, the MIC [13] was over 200 µg/mL.

`CC(=O)OCC1=C(C(=O)O)N2C(=O)C(NC(=O)CS(=O)(=O)CC#N)C2SC1` (stereo not drawn) [Compound 90246, 7-cyanomethylsulfonylacetamidocephalosporanic acid] showed an MIC [1] of 1.6 µg/mL (≈ 3.83 µM), an MIC [2] of 1.6 µg/mL (≈ 3.83 µM) and an MIC [3] of 25 µg/mL (≈ 59.9 µM). The MIC [4] was 50 µg/mL (≈ 120 µM), the MIC [5] was 6.3 µg/mL (≈ 15.1 µM) and the MIC [6] was 25 µg/mL (≈ 59.9 µM). The MIC [7] was 25 µg/mL (≈ 59.9 µM), the MIC [8] was 6.3 µg/mL (≈ 15.1 µM) and the MIC [9] was 3.1 µg/mL (≈ 7.43 µM). It also gave an MIC [10] of 6.3 µg/mL (≈ 15.1 µM), an MIC [11] of over 200 µg/mL and an MIC [12] of over 200 µg/mL. The MIC [13] was 50 µg/mL (≈ 120 µM).
